The results in this text go back to paper PMC7719179, “Small molecule inhibition of Dynamin-dependent endocytosis targets multiple niche signals and impairs leukemia stem cells” (Nature Communications, 2020).

Several values for one entry are separate records, joined by “and”; a condition that tells them apart may be missing. Equal values may be shown once.

The subject of data set [1] is normal murine hematopoietic stem and progenitor cells (HSPCs).
Procedure: Bone marrow cells collected from 2-month-old WT mice or CD34-positive (CD34+) stem and progenitor bone marrow cells from healthy donors were seeded at a density of 5 × 10^4 cells per 35 mm dish in semi-solid agar for GM colony growth, as previously described[92]. Cultures were incubated at 37 °C in 10% CO2 for 10 days in presence of 10 μg/mL rhIL-3 (#200-03, Pepro Tech), 25 μg/mL rhSCF (#300-07, Pepro Tech), 25 μg/mL rhFLT3-L (#300-19, Pepro Tech), rhIL-6 (#200-06, Pepro Tech), 500 nM StemRegenin 1 (SR1; #1227633-49-9, Stem Cell Technologies) and 35 nM UM-171 (#72914, Stem Cell Technologies)[93],[94], then stained with acetyl-cholinesterase and counted for the number of colonies.
The test system of the next data set is Ba/F3-SGM3R cells. Briefly: Survival of cytokine-dependent Ba/F3-SGM3R cells, 48 h. Type of data set: cell-based, murine. The settings on record: result in words. The text has this: (§1) The coding sequence of murine Csf2ra (gm-csfr) and c-Kit was amplified by PCR from cDNA of bone marrow mononuclear cells of a healthy WT donor using primers mGmcsfr-FL-F and mGmcsfr-FL-R, and mKit-FL-F and mKit-FL-R, respectively (Table 3). The PCR product was cloned into the XhoI and EcoRI sites of pMIG-R1, which was kindly given by Pear et al.[82],[83]. Ba/F3 cells were infected with pMIG-R1/Gmcsfr retroviral supernatants produced in 293T cells, transduced cells were sorted with a BD Influx (BD Australia) and selected by culture in medium supplemented with 25 ng/mL rmGm-csf (#305-03, Pepro Tech, Rocky Hill NJ, USA) for 7 days. Finally, Ba/F3 cells stably expressing Gm-csfr were infected with pMIG-R1/Kit retroviral supernatants produced in 293T cells to generate Ba/F3-SMG3R cells, which were sorted with a BD Influx and maintained in medium supplemented with 5 ng/mL rmIL-3 (#213-13, Pepro Tech, Rocky Hill NJ, USA).
Supplementary Figure 8. […]
Basal levels of live cells were measured in BaF3-SGM3R cells cultured without cytokines (white bar). b, Levels of activated Stat5 (pStat5) in BaF3-SGM3 R cells stimulated with IL-3 (purple bars) and GM -CSF (yellow bars), and SCF-induced phospho-Erk (green bars), treated with increasing doses of Dynole 34-2 assessed by flow cytometry.

The test system of data set [2] is ETP12 and ALL8 patient-derived xenografts. In words: Xenograft models of human T-ALL (ETP12, ALL8): leukemic burden in blood, bone marrow, spleen; spleen weight. Type of data set: in vivo. Here is the method:
Patient-derived xenograft models were established as previously described[97],[98]. All experiments were pre-approved by the Human Research Ethics Committee of the University of New South Wales (UNSW), the UNSW Animal Care and Ethics Committee, the Alfred Health Human Ethics Committee and the AMREP Animal Ethics Committee. For transplantation assays, 10^6 splenocytes harvested from successfully engrafted primary human ETP-ALL or T-ALL xenografts were injected into nonobese diabetic/severe combined immunodeficient (NOD.Cg-Prkdc^scid, also termed NOD/SCID) or NOD/SCID/Il2rg^tm1wjl/SzJ (NSG) mice[99]. Moreover, 1.5 × 10^6 cells splenocytes harvested from successfully engrafted patient-derived AML xenografts were injected into nonobese diabetic/severe immunodeficient (NOD.Cg-Rag1^tm1MomIl2rg^tm1wjl/SzJ, also termed NRG) mice expressing human IL-3, human GM-CSF and human SCF from the SGM3 triple transgene (NRGS)[100]. Engraftment into recipients was monitored by FACS analysis of peripheral blood as previously described. […] Both males and females were used. […] Kaplan–Meier survival and statistical analyses were performed using GraphPad Prism. 6.0 software (GraphPad Software, Inc.).
Spleen and sternum from recipients were collected, incubated at least 24 h in 3.7% neutral buffered formalin (pH 7.4), embedded in paraffin and sectioned at 8 μm onto Superforst-Plus slides. Samples were incubated with an anti-human CD45 antibody (Dako, #M0701) in Dako Autostainer Plus solution, then incubated with a sheep anti-mouse IgG conjugated to HRP and processed as per standard protocols using 3,3’ Diaminobenzidine staining (#ab64238, Abcam) for all immunoblots, as previously described. Samples were imaged and annotated using an Aperio ScanScope and software system (Leica Biosystems). […]
(blue circles) and ALL8 (red open circles) 24 hours after the last dose of drugs was administered.
therapy. Median is indicated (bar) with Mean ± SEM indicated for ETP12 and ALL8, 2-way ANOVA
period of administration is indicated in light grey.
On the technique in general: In xenograft studies the graft and the host belong to different species.

The nature of data set [3]: Clonogenic assay of human CD34-positive HSPCs from healthy donors, 10 days (LC50). It is filed as cell-based. On the set-up: Relative number of colonies (% DMSO): unit of the concentration uncertain. The settings on record: human.
Procedure: (§2) Cultures were incubated at 37 °C in 10% CO2 for 10 days in presence of 10 μg/mL rhIL-3 (#200-03, Pepro Tech), 25 μg/mL rhSCF (#300-07, Pepro Tech), 25 μg/mL rhFLT3-L (#300-19, Pepro Tech), rhIL-6 (#200-06, Pepro Tech), 500 nM StemRegenin 1 (SR1; #1227633-49-9, Stem Cell Technologies) and 35 nM UM-171 (#72914, Stem Cell Technologies)[93],[94], then stained with acetyl-cholinesterase and counted for the number of colonies.
Data set [4] concerns normal human CD34-positive HSPCs. The data set is described as above. On the set-up: Relative number of colonies (% DMSO): unit of the concentration uncertain. It is filed as cell-based.
Procedure: as §2
For data set [5], the system named is IL-3R, GM-CSFR and c-Kit endocytosis in Ba/F3-SGM3R cells. In words: Surface expression of IL-3R, GM-CSFR and KIT in Ba/F3-SGM3R cells. It is filed as cell-based, murine. The settings on record: result in words.
Excerpt: as §1
Mean fluorescence intensity (MFI) ± SD of n=3 biological replicates are shown (*P<0.05, ** P<0.01, ***P<0.001 compared to vehicle) . Basal levels of pStat5 and pErk were measured in unstimulated BaF3-SGM3 R cells (white bar). c, Correlative studies between the relative levels of pStat5 (left) or pErk (right) and the relative survival of BaF3-SGM3R cells treated Dynole 34-2 . […]
in BaF3-SGM3R cells treated with Dynole 34-2 . […] Baseline measured in unstimulated BaF3-SGM3 R cells

The term CC50 denotes the concentration at which the toxic effect on the cells reaches its halfway point.

Consider `N#CC[C@H](C1CCCC1)n1cc(-c2ncnc3[nH]ccc23)cn1` [Ruxolitinib], for which, in data set [1], the “growth of normal hematopoietic stem and progenitor cells (HSPCs), clonogenic assay” value is reported as “significantly impaired”.

Regarding `CCCCCCCCNC(=O)C(C#N)=Cc1cn(CCCN(C)C)c2ccccc12` [Dynole 34-2, 2-Cyano-N-octyl-3-(1-(3-dimethylaminopropyl)-1H-indol-3-yl)-acrylamide], the “cell death of Ba/F3-SGM3R cells” value in the data set with Ba/F3-SGM3R cells is recorded as “induced cell death in a dose-dependent manner”. In addition, the “Absolute numbers human CD45+ cells” value in data set [2] (ALL8, BM) is 6540000 and 4120000 and 6090000; in data set [2] (ETP12, BM), 4510000 and 5170000 and 3540000. Also, the “Proportion of hCD45+ (%) in peripheral blood” value in data set [2] (ALL8, Time (weeks) 1) is 1.0%; in data set [2] (ALL8, Time (weeks) 5), 2.0%; in data set [2] (ALL8, Time (weeks) 6), 64.0%; in data set [2] (ETP12, Time (weeks) 1), 0.1% and 0.0% and 0.2%; in data set [2] (ETP12, Time (weeks) 2), 0.2% and 0.1% and 0.3% and 0.0%; in data set [2] (ETP12, Time (weeks) 3) it was 2.8% and 0.4% and 7.0% and 8.6% and 4.0% and 0.0% and 0.2%. In addition, in data set [2] (ETP12, Time (weeks) 7), the “Proportion of hCD45+ (%) in peripheral blood” value is given as 35.2%. Further, in data set [2] (ETP12 and ALL8 recipients, 24 h after last administration, in words), the “patient-derived leukemic cells in bone marrow and spleen, Dynole 34-2 combined with chemotherapy compared with chemotherapy alone” value was “at least tenfold less”. Also, the “leukemic cells in the peripheral blood, bone marrow and spleen, single agent” value in data set [2] (ETP12 and ALL8 xenografts, result in words) is listed as “significant reduction in leukemic cells”. Besides, the Spleen weight is 0.116 g and 0.076 g and 0.075 g in data set [2] (PDX ALL8); 0.157 g and 0.109 g and 0.091 g in data set [2] (PDX ETP12). The CC50 at 10 days in data set [3] (normal human CD34-positive HSPCs, clonogenic assay 10 days, Mean ± SEM) was 23 ± 5.72 µM; in data set [3] (sample 06-02-2018 CD34), 8.8 µM; in data set [3] (sample 10-03-2018 CD34), 9.85 µM; in data set [3] (sample 18/03/2016 CD34), 7.09 µM; in data set [3] (sample 21-04-2018 CD34), 7.34 µM; in data set [3] (sample 22/05/2018 CD34), 17.2 µM. For the same molecule, in data set [3] (sample 24/06/2016 CD34), the midpoint of cytotoxicity, the CC50 at 10 days, lay at 11.3 µM. The “Relative number of colonies (% DMSO)” value in data set [4] (CD34_1003, dose 0.04 (unit uncertain)) was 99.5 % DMSO and 94.6 % DMSO; in data set [4] (CD34_1003, dose 0.2 (unit uncertain)), 88.8 % DMSO and 76.1 % DMSO; in data set [4] (CD34_1003, dose 1 (unit uncertain)), 82.9 % DMSO and 71.2 % DMSO; in data set [4] (CD34_1003, dose 5 (unit uncertain)), 48.8 % DMSO and 56.6 % DMSO; in data set [4] (CD34_1003, dose 25 (unit uncertain)), 0.0 % DMSO; in data set [4] (CD34_1602, dose 0.04 (unit uncertain)) it was 116.1 % DMSO and 109.5 % DMSO. The “Relative number of colonies (% DMSO)” value in data set [4] (CD34_1602, dose 0.2 (unit uncertain)) was 118.9 % DMSO and 100.0 % DMSO; in data set [4] (CD34_1602, dose 1 (unit uncertain)), 106.3 % DMSO and 87.8 % DMSO; in data set [4] (CD34_1602, dose 5 (unit uncertain)) it was 89.5 % DMSO and 73.0 % DMSO; in data set [4] (CD34_1602, dose 25 (unit uncertain)) it was 0.0 % DMSO; in data set [4] (CD34_2104, dose 0.04 (unit uncertain)), 102.6 % DMSO; in data set [4] (CD34_2104, dose 0.2 (unit uncertain)), 104.6 % DMSO and 97.4 % DMSO. Further, the “Relative number of colonies (% DMSO)” value in data set [4] (CD34_2104, dose 1 (unit uncertain)) was 68.7 % DMSO and 76.9 % DMSO; in data set [4] (CD34_2104, dose 25 (unit uncertain)), 0.0 % DMSO. In data set [5], the “endocytosis of c-Kit, GM-CSFR and IL-3R” value is listed as “impaired endocytosis”.
